Measurements published in patent publication US20100159093A1, “METHOD OF TREATING FOODSTUFF” (priority 2008, published 2010).

Tests used:
[1] = test system: microaerobic/fermentative microbes (such as lactobacilli); assay: Growth of lactobacillus-type bacteria in raw milk under nitrogen gas; type: cell-based; settings: 12.0° C., N1 environment (120 ml/min), Example 5, FIG. 5G
Experimental: (§1) With the device shown in FIG. 1, the effect of nitrogen gas on the natural microflora in raw milk (volume approximately 125 ml) was examined by replacing the air (control) in an open vessel (volume approximately 250 ml) at a constant temperature, with a flow-through of 100% nitrogen gas (purity 99.999%, manufacturer AGA) at two different flow-through rates: N1=120 ml/min, N2=40 ml/min. The temperature of the raw milk in the sample bottles was adjusted by means of the thermostat (14) of the water bath to bring the temperature of the milk to 6.0° C., 7.0° C. or 12.0° C. The temperature variation in the vessel was less than ±0.1° C. The effect of nitrogen gas on the growth of the microflora in a raw milk sample at 12.0° C. Two flow-through rates of the nitrogen gas were used in the study: (▴) 40 ml/min and ([…]) 120 ml/min. […] The following bacterial levels were determined in the samples: FIG. 5A: Total bacteria count (p.m.y./ml) FIG. 5B: Total number of psychrotrophs (p.m.y./ml) FIG. 5C: Total number of proteolytic bacteria (p.m.y./ml) FIG. 5D: Total number of lipolytic bacteria (p.m.y./ml) FIG. 5E: Total number of bacteria producing phospholipase (p.m.y./ml). […]

anaerobic microbes = assay: Growth of anaerobically cultivated bacteria in raw milk under nitrogen gas; type: cell-based; settings: 12.0° C., N1 environment (120 ml/min), Example 5, FIG. 5H
Experimental: as §1

Bacillus cereus = assay: Number of Bacillus cereus bacteria in raw milk (MYP dish) under nitrogen gas; type: cell-based; settings: 6.0° C., N2 environment (40 ml/min), after 7 days
Experimental: With the device shown in FIG. 1, the effect of nitrogen gas on the natural microflora in raw milk (volume approximately 125 ml) was examined by replacing the air (control) in an open vessel (volume approximately 250 ml) at a constant temperature, with a flow-through of 100% nitrogen gas (purity 99.999%, manufacturer AGA) at two different flow-through rates: N1=120 ml/min, N2=40 ml/min.
Two flow-through rates of the nitrogen gas were used in the study; (N2) 40 ml/min and (N1) 120 ml/min.

four Pseudomonas strains = settings: 15° C., Eyles et al.; cited from earlier work

SMILES: N#N [nitrogen gas]
- growth of microaerobic/fermentative microbes (such as lactobacilli) [1]: able to delay the growth
- growth of anaerobic microbes (anaerobic microbes): able to delay the growth
- elimination of bacteria of the B. cereus type from raw milk (Bacillus cereus): adequate for eliminating the bacteria of the B. cereus type
- inhibition of Pseudomonas strains (four Pseudomonas strains): did not establish that pure nitrogen is capable of significantly inhibiting
